Percent response, lower = inhibition and EC50 data for 73 compounds are collected here from PubChem BioAssay AID504931 (NMMLSC, 2011).

Calls of active or inactive are those of the source.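 Rule for the calls: active = compounds with a reliable fitted curve whose half-effect concentration is below 50 µM; inactive = the rest.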

Tested on in one test: not listed separately
Description: inhibitors of age-related superoxide in yeast, dose response, powder samples, confirmation (AID 504931). Particulars: S. cerevisiae aged cells, superoxide DHE fluorescence, 7 d; at 100 µM (top of the series).
With `O=C(Nc1ccccc1)c1ccc2nccnc2c1`, the percent response, lower = inhibition was 96.8% (inactive).
On the same count and under the same terms, the figure for `O=C(/C=C/c1cccs1)NC(=S)NNC(=O)Cc1cccs1` is 66.6% (inactive).
On the same count and under the same terms, the value for `O=C(Nc1ccc2nccnc2c1)c1cccc2nccnc12` was 80.9% (inactive).
Regarding `CC(C)OC(=O)CSc1nnc(-c2ccc(Cl)cc2Cl)o1`, the percent response, lower = inhibition is 97.2% (inactive).
Take `Cc1cc(C)cc(NC(=O)CN2CCN(c3ccccn3)CC2)c1`: the percent response, lower = inhibition was 99.1% (inactive).
The same measure, in the same setting: the figure for `CC(C)(C)Nc1ncnc2c1cnn2-c1ccccc1` is 94.4% (inactive).
The same measure, in the same setting: the value for `C#CCSc1ccc(-c2ccc([N+](=O)[O-])cc2)o1` was 58% (inactive); that for `Cc1cc2nc3ccc(N(C)C)cc3nc2cc1N` was 89.3% (inactive).
On the same count and under the same terms, the value for `CN(C)CCNc1ncnc2c1cnn2-c1ccc(Cl)cc1` was 92% (inactive); that for `Cn1c(=O)[nH]c2nncnc2c1=O` was 111% (inactive); that for `O=C(NCc1ccccc1)c1ccc2nccnc2c1` was 178% (inactive).
For the compound `COc1ccc2cc(C3CC(c4ccco4)=NN3S(=O)(=O)c3ccccc3)c(Cl)nc2c1` (stereo not drawn), the percent response, lower = inhibition is 97.3% (inactive).
On the same count and under the same terms, the figure for `O=c1[nH]c(O)c(C=Nc2ccc(F)c(Cl)c2)c(=O)[nH]1` is 106% (inactive); for `O=C(c1cccc2nccnc12)N1CCOc2ccccc21` it is 96.8% (inactive); for `Cn1c(O)c(C(=Nc2ccc(F)cc2)c2ccccc2Cl)c(=O)n(C)c1=O` it is 98.6% (inactive).
As to `C[C@@]12C(=O)OC(=O)[C@]1(C)C1CCC2O1`, the percent response, lower = inhibition was 351% (inactive).
Same read-out and setting: the figure for `O=C(CN1CCN(c2ccccn2)CC1)Nc1ccccc1F` is 98.8% (inactive).
The same measure, in the same setting: the figure for `O=C(/C=C/c1ccccc1)NC(=S)NNC(=O)Cc1cccs1` is 74.9% (inactive); for `O=C(OCc1c(F)cccc1Cl)c1cnc2ccccc2n1` it is 86.9% (inactive).
In the case of `N#CC(c1nc2ccccc2nc1N1CCCC1)S(=O)(=O)c1ccccc1` (stereo not drawn), the percent response, lower = inhibition was 89.3% (inactive).
On the same count and under the same terms, the value for `CN(C)C(=O)c1ccc2nccnc2c1` was 181% (inactive); that for `O=C(Nc1ccc2nccnc2c1)NC1CCCCC1` was 96% (inactive).
On the same count and under the same terms, the figure for `COc1ccc2nc3ccccc3nc2c1` is 108% (inactive).
Still for that read-out and setting: the value for `Nc1ccc2nccnc2c1` was 96.2% (inactive).
With `O=C(O)c1ccc2nccnc2c1`, the percent response, lower = inhibition was 85.8% (inactive).
`CCn1c2ccccc2c2n[nH]c(=S)nc21`: the percent response, lower = inhibition was 99.9% (inactive).
For `O=C(Nc1ccc2nccnc2c1)N1CCOCC1`, the percent response, lower = inhibition is 96.4% (inactive).
Take `COc1ccc2nc3ccccc3[n+]([O-])c2c1`: the percent response, lower = inhibition was 122% (inactive).
Still for that read-out and setting: the figure for `Cc1cc(C)c2[nH]c3nc(SCC(=O)O)nnc3c2c1` is 92.4% (inactive); for `CC(C)CSc1nnc2c3ccccc3n(C)c2n1` it is 110% (inactive); for `CN1CCN(C(=O)c2ccc3nccnc3c2)CC1` it is 105% (inactive).
Same read-out and setting: the figure for `O=C(O)c1cnc2ccccc2n1` is 75.7% (inactive).
The same measure, in the same setting: the value for `CSc1nnc(-c2ccc([N+](=O)[O-])cc2)o1` was 74% (inactive).
For the compound `[O-][n+]1c2ccccc2[n+]([O-])c2cc(O)ccc21`, the percent response, lower = inhibition is 126% (inactive).
The same measure, in the same setting: the figure for `O=C(Nc1ccc2nc3ccccc3nc2c1)c1ccc(Br)cc1` is 88% (inactive); for `O=C(Nc1cccc2nccnc12)c1ccccc1` it is 80.3% (inactive); for `O=C(Nc1ccc2nccnc2c1)N1CCN(c2ccccc2)CC1` it is 91.3% (inactive).
The same measure, in the same setting: the figure for `C[n+]1c2ccccc2nc2ccc(NCCO)cc21` is 62.9% (inactive).
Same read-out and setting: the figure for `O=C(c1ccc2nccnc2c1)N1CCN(c2ccccc2)CC1` is 89.9% (inactive).
In the case of `O=C(c1ccc2nccnc2c1)N1CCCCC1`, the percent response, lower = inhibition is 105% (inactive).
Consider `c1ccc2nc3ccccc3nc2c1`, for which the percent response, lower = inhibition was 119% (inactive).
Still for that read-out and setting: the figure for `CCN(CC)C(=O)CSc1nnc(-c2cccc(OC)c2)o1` is 104% (inactive); for `O=C(Nc1cccc(Cl)c1)Nc1ccc2nccnc2c1` it is 87.5% (inactive).
Still for that read-out and setting: the figure for `CCC(=Nc1ccccc1O)C1=C(O)CC(c2ccccc2)CC1=O` (stereo not drawn) is 62.2% (inactive); for `C=CCOn1c(=O)c(-c2cccs2)[n+]([O-])c2ccccc21` it is 112% (inactive).
As for `Oc1cccc2nc3ccccc3nc12`, the percent response, lower = inhibition is 194% (inactive).
Same read-out and setting: the figure for `O=C(O)c1cccc2nccnc12` is 93.9% (inactive); for `O=C(c1cccc2nccnc12)N1CCN(c2ccccc2F)CC1` it is 101% (inactive); for `CC(C)(C)NC(=O)Nc1ccc2nccnc2c1` it is 101% (inactive).
Same read-out and setting: the figure for `CCc1nc(NC(C)(C)C)c2cnn(-c3ccccc3)c2n1` is 117% (inactive); for `C=CCSc1ccc(-c2ccc([N+](=O)[O-])cc2)o1` it is 54.8% (inactive).

In the next test the test system is S. cerevisiae aged cells, superoxide DHE fluorescence, 7 d. The description is as above.
Conditions: not given
For the compound `COc1cccc2nc3cc(C)c(C)cc3nc12`, the EC50 is 0.9 µM.
On the same count and under the same terms, the figure for `CCN(CC)C(=O)c1cccc2nc3ccccc3nc12` is 2.8 µM.
With `OCC[n+]1c2ccccc2nc2ccc(N3CCOCC3)cc21`, the EC50 is 10.7 µM.
Same read-out and setting: the figure for `O=C1c2c(O)ccc(O)c2C(=O)c2c(NCCNCCO)ccc(NCCNCCO)c21` is 3.41 µM.
Still for that read-out and setting: the value for `COc1ccc2c(c1)c1nnc(SC)nc1n2C` was 1.57 µM; that for `CCN(CC)C(=O)c1ccc2nc3ccccc3nc2c1` was 0.8 µM.
For `CNc1ccc2nc3ccccc3[n+](C)c2c1`, the EC50 is 6.01 µM.
Same read-out and setting: the value for `O=C(c1cccc2nc3ccccc3nc12)N1CCOCC1` was 2.33 µM; that for `CC(=O)Nc1ccc2nc3ccccc3nc2c1` was 0.33 µM.
On the same count and under the same terms, the figure for `CC(C)OC(=O)c1ccc2nc3ccccc3nc2c1` is 10.9 µM.
On the same count and under the same terms, the value for `N#CCc1nn(-c2ccccc2)c2ncnc(N)c12` was 0.8 µM; that for `Cc1ccccc1NC(=O)c1cccc2nc3ccccc3nc12` was 5.45 µM; that for `COc1ccc2nc3ccccc3nc2c1N` was 2.32 µM.
For the compound `c1ccc2[nH]c3cc4ncnc4cc3nc2c1`, the EC50 was 1.11 µM.
As for `CC(C)(C)n1nc(-c2ccc(Cl)cc2)c2c(N)ncnc21`, the concentration for a half-maximal effect (EC50) was 7.98 µM.
On the same count and under the same terms, the value for `Cc1ccc(-c2nn(C(C)(C)C)c3ncnc(N)c23)cc1` was 2.25 µM.
For the compound `CCN(CC)c1ccc2nc3ccc(N)cc3[n+](-c3ccccc3)c2c1`, the EC50 was 26.4 µM.
As for `Nc1cc2nc3ccccc3nc2cc1N`, the 50% effective concentration (EC50) was 4.5 µM.
On the same count and under the same terms, the value for `CC(C)(C)n1nc(-c2ccc(F)cc2)c2c(N)ncnc21` was 17.2 µM; that for `FC(F)(F)c1nc2cc3nc4ccccc4[nH]c3cc2n1` was 0.51 µM.
As to `CCCCCNC(=O)C(=O)C1C(=O)Nc2ccccc21` (stereo not drawn), the EC50 was 0.33 µM.
As to `COc1ccc2nc3ccccc3nc2c1NC(=O)c1ccccc1Cl`, the EC50 is 1.11 µM.

A word on the EC50: it is the concentration that produces a half-maximal response.
